Measurements as given in PMC9481151, “Discovery of new symmetrical and asymmetrical nitrile-containing 1,4-dihydropyridine derivatives as dual kinases and P-glycoprotein inhibitors: synthesis, in vitro assays, and in silico studies” (Journal of Enzyme Inhibition and Medicinal Chemistry, 2022).
Where “and” joins values, the source holds several entries; their conditions need not be identical. Equal values may be shown once.

What was measured:
SW-620 = test: NCI single dose (10 µM) SRB screen; format: cell-based, human; conditions: colon cancer, 48 h
HOP-62 = test: NCI single dose (10 µM) SRB screen; format: cell-based, human; conditions: non-small cell lung cancer, 48 h
Candida albicans = test: Agar well diffusion method
Bacillus subtilis = test: Agar well diffusion method
HCC-2998 = test: NCI single dose (10 µM) SRB screen; format: cell-based, human; conditions: colon cancer, 48 h
SR = test: NCI single dose (10 µM) SRB screen; format: cell-based, human; conditions: leukaemia, 48 h
BT-549 = test: NCI single dose (10 µM) SRB screen; format: cell-based, human; conditions: breast cancer, 48 h
T-47D = test: NCI single dose (10 µM) SRB screen; format: cell-based, human; conditions: breast cancer, 48 h
HCT-15 = test: NCI single dose (10 µM) SRB screen; format: cell-based, human; conditions: colon cancer, 48 h
HS578T = test: NCI single dose (10 µM) SRB screen; format: cell-based, human; conditions: breast cancer, 48 h
NCI-H322M = test: NCI single dose (10 µM) SRB screen; format: cell-based; conditions: non-small cell lung cancer, 48 h
MOLT-4 = test: NCI single dose (10 µM) SRB screen; format: cell-based, human; conditions: leukaemia, 48 h
Staphylococcus aureus = test: Agar well diffusion method
MDA-MB-468 = test: NCI single dose (10 µM) SRB screen; format: cell-based, human; conditions: breast cancer, 48 h
Escherichia coli = test: Agar well diffusion method
IGROV1 = test: NCI single dose (10 µM) SRB screen; format: cell-based, human; conditions: ovarian cancer, 48 h
LOX IMVI = test: NCI single dose (10 µM) SRB screen; format: cell-based, human; conditions: melanoma, 48 h
UACC-62 = test: NCI single dose (10 µM) SRB screen; format: cell-based, human; conditions: melanoma, 48 h
Aspergillus flavus = test: Agar well diffusion method
UO-31 = test: NCI single dose (10 µM) SRB screen; format: cell-based, human; conditions: renal cancer, 48 h
OVCAR-8 = test: NCI single dose (10 µM) SRB screen; format: cell-based, human; conditions: ovarian cancer, 48 h
SNB-19 = test: NCI single dose (10 µM) SRB screen; format: cell-based, human; conditions: CNS cancer, 48 h
SN12C = test: NCI single dose (10 µM) SRB screen; format: cell-based, human; conditions: renal cancer, 48 h
786-0 = test: NCI single dose (10 µM) SRB screen; format: cell-based, human; conditions: renal cancer, 48 h
NCI-H23 = test: NCI single dose (10 µM) SRB screen; format: cell-based, human; conditions: non-small cell lung cancer, 48 h
SK-MEL-28 = test: NCI single dose (10 µM) SRB screen; format: cell-based, human; conditions: melanoma, 48 h
NCI-H522 = test: NCI single dose (10 µM) SRB screen; format: cell-based, human; conditions: non-small cell lung cancer, 48 h
NCI/ADR-RES = test: NCI single dose (10 µM) SRB screen; format: cell-based, human; conditions: ovarian cancer, 48 h
MDA-MB-435 = test: NCI single dose (10 µM) SRB screen; format: cell-based, human; conditions: melanoma, 48 h
RXF 393 = test: NCI single dose (10 µM) SRB screen; format: cell-based, human; conditions: renal cancer, 48 h
MALME-3M = test: NCI single dose (10 µM) SRB screen; format: cell-based, human; conditions: melanoma, 48 h
DU-145 = test: NCI single dose (10 µM) SRB screen; format: cell-based, human; conditions: prostate cancer, 48 h
SF-268 = test: NCI single dose (10 µM) SRB screen; format: cell-based, human; conditions: CNS cancer, 48 h
UACC-257 = test: NCI single dose (10 µM) SRB screen; format: cell-based, human; conditions: melanoma, 48 h
NCI-H226 = test: NCI single dose (10 µM) SRB screen; format: cell-based, human; conditions: non-small cell lung cancer, 48 h
SF-539 = test: NCI single dose (10 µM) SRB screen; format: cell-based, human; conditions: CNS cancer, 48 h
OVCAR-3 = test: NCI single dose (10 µM) SRB screen; format: cell-based, human; conditions: ovarian cancer, 48 h
A549/ATCC = test: NCI single dose (10 µM) SRB screen; format: cell-based, human; conditions: non-small cell lung cancer, 48 h
M14 = test: NCI single dose (10 µM) SRB screen; format: cell-based, human; conditions: melanoma, 48 h
NCI 60 cancer cell lines = test: NCI single dose (10 µM) SRB screen, mean over panel; format: cell-based, human; conditions: mean over 60 cell lines, 48 h
MDA-MB-231 = test: NCI single dose (10 µM) SRB screen; format: cell-based, human; conditions: breast cancer, 48 h
RPMI-8226 = test: NCI single dose (10 µM) SRB screen; format: cell-based, human; conditions: leukaemia, 48 h
U251 = test: NCI single dose (10 µM) SRB screen; format: cell-based, human; conditions: CNS cancer, 48 h
HOP-92 = test: NCI single dose (10 µM) SRB screen; format: cell-based, human; conditions: non-small cell lung cancer, 48 h
SF-295 = test: NCI single dose (10 µM) SRB screen; format: cell-based, human; conditions: CNS cancer, 48 h
TK-10 = test: NCI single dose (10 µM) SRB screen; format: cell-based, human; conditions: renal cancer, 48 h
SNB-75 = test: NCI single dose (10 µM) SRB screen; format: cell-based, human; conditions: CNS cancer, 48 h
OVCAR-4 = test: NCI single dose (10 µM) SRB screen; format: cell-based, human; conditions: ovarian cancer, 48 h
PC-3 = test: NCI single dose (10 µM) SRB screen; format: cell-based, human; conditions: prostate cancer, 48 h
COLO 205 = test: NCI single dose (10 µM) SRB screen; format: cell-based, human; conditions: colon cancer, 48 h
CAKI-1 = test: NCI single dose (10 µM) SRB screen; format: cell-based, human; conditions: renal cancer, 48 h

CCOC(=O)C1=C(C)NC(C)=C(C(=O)OC(C)(C)C)C1c1cccc(C#N)c1 (racemic) [Compound 2j, (±)-3-Tert-butyl 5-ethyl 4-(3-cyanophenyl)-2,6-dimethyl-1,4-dihydropyridine-3,5-dicarboxylate]
75%: % activity index, S. aureus (Staphylococcus aureus; relative to ciprofloxacin)
13%: GI% 786-0 (786-0) | GI% NCI-H522 (NCI-H522)
22%: GI% SR (SR) | GI% SNB-75 (SNB-75)
4%: Mean GI% (NCI 60 cancer cell lines)
19 mm: zone of inhibition at 1000 µg/mL (Candida albicans; Candida albicans, 24 h, read-out: Diameter of inhibition zone, C. albicans)
17%: GI% MOLT-4 (MOLT-4) | GI% CAKI-1 (CAKI-1)
12%: GI% RPMI-8226 (RPMI-8226)
10%: GI% MDA-MB-468 (MDA-MB-468) | GI% UACC-62 (UACC-62) | GI% NCI/ADR-RES (NCI/ADR-RES)
18 mm: zone of inhibition at 1000 µg/mL (Staphylococcus aureus; Staphylococcus aureus, 24 h, read-out: Diameter of inhibition zone, S. aureus) | zone of inhibition at 1000 µg/mL (Escherichia coli; Escherichia coli, 24 h, read-out: Diameter of inhibition zone, E. coli)
80%: % activity index, A. flavus (Aspergillus flavus; relative to clotrimazole)
70% and 70.4%: % activity index, C. albicans (Candida albicans; relative to clotrimazole)
65.2%: % activity index, B. subtilis (Bacillus subtilis; relative to ciprofloxacin)
15 mm: zone of inhibition at 1000 µg/mL (Bacillus subtilis; Bacillus subtilis, 24 h, read-out: Diameter of inhibition zone, B. subtilis)
69% and 69.2%: % activity index, E. coli (Escherichia coli; relative to ciprofloxacin)
11%: GI% A549/ATCC (A549/ATCC)
– (Only GI% ≥ 10 are shown): GI% SW-620 (SW-620) | GI% HOP-62 (HOP-62) | GI% HCC-2998 (HCC-2998) | GI% BT-549 (BT-549) | GI% T-47D (T-47D) | GI% HCT-15 (HCT-15) | GI% HS578T (HS578T) | GI% NCI-H322M (NCI-H322M) | GI% IGROV1 (IGROV1) | GI% LOX IMVI (LOX IMVI) | GI% UO-31 (UO-31) | GI% OVCAR-8 (OVCAR-8) | GI% SNB-19 (SNB-19) | GI% SN12C (SN12C) | GI% NCI-H23 (NCI-H23) | GI% SK-MEL-28 (SK-MEL-28) | GI% MDA-MB-435 (MDA-MB-435) | GI% RXF 393 (RXF 393) | GI% MALME-3M (MALME-3M) | GI% DU-145 (DU-145) | GI% SF-268 (SF-268) | GI% UACC-257 (UACC-257) | GI% NCI-H226 (NCI-H226) | GI% SF-539 (SF-539) | GI% OVCAR-3 (OVCAR-3) | GI% M14 (M14) | GI% MDA-MB-231 (MDA-MB-231) | GI% U251 (U251) | GI% HOP-92 (HOP-92) | GI% SF-295 (SF-295) | GI% TK-10 (TK-10) | GI% OVCAR-4 (OVCAR-4) | GI% COLO 205 (COLO 205)
18%: GI% PC-3 (PC-3)
20 mm: zone of inhibition at 1000 µg/mL (Aspergillus flavus; Aspergillus flavus, 24 h, read-out: Diameter of inhibition zone, A. flavus)
